Source: ChEMBL document CHEMBL1155492, “Evaluation of thieno[3,2-b]pyrrole[3,2-d]pyridazinones as activators of the tumor cell specific M2 isoform of pyruvate kinase” (Bioorg Med Chem Lett, 2010)
≈ marks a conversion by molar mass, not a printed value.

Test system: not listed separately
Experiment: Aqueous solubility in DMSO at pH 7.4 by quantitative nitrogen detection assay
Type: physicochemical
Conditions: aqueous solution with DMSO; call rule not given here

Going from `Cn1c2cc([S+](C)[O-])sc2c2cnn(Cc3ccccc3F)c(=O)c21` (stereo unspecified) to `Cc1cc2c(s1)c1cnn(Cc3ccccc3F)c(=O)c1n2C`, the solubility kinetic falls from 4.4 µg/mL (≈ 11.7 µM) to less than 0.2 µg/mL.

`COc1cccc(Cn2ncc3c4sc([S+](C)[O-])cc4n(C)c3c2=O)c1` (stereo unspecified) and `Cn1c2cc([S+](C)[O-])sc2c2cnn(Cc3cccc(N)c3)c(=O)c21` (stereo unspecified) are within 1.5-fold of each other in solubility kinetic: 37.4 µg/mL (≈ 96.5 µM) for the first, 29.6 µg/mL (≈ 79.5 µM) for the second.

`Cn1c2cc([S+](C)[O-])sc2c2cnn(Cc3cccc(O)c3)c(=O)c21` (stereo unspecified) gave a solubility kinetic of 16.9 µg/mL (≈ 45.3 µM).

Molecular target: T1, Pyruvate kinase PKM (Homo sapiens, UniProt P14618)
T1 sequence (P14618 whole entry): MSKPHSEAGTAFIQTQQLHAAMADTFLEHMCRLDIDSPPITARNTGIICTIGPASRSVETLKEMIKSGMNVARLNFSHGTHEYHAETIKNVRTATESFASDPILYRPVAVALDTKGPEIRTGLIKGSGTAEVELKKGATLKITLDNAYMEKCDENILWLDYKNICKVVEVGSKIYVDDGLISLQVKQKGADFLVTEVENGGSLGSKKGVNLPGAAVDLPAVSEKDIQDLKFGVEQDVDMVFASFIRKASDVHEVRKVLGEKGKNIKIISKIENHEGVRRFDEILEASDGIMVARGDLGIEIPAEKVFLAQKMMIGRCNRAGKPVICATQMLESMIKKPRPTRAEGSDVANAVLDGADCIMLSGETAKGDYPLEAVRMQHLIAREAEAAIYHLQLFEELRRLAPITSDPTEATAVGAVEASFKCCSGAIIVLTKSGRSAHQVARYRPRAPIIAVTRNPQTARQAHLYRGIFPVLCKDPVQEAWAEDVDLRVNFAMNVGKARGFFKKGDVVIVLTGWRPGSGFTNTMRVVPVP
Conditions: not given

First: Cc1cc2c(s1)c1cnn(Cc3ccc(C(F)(F)F)cc3F)c(=O)c1n2C
Second: Cc1ccc(Cn2ncc3c4sc(C)cc4n(C)c3c2=O)c(F)c1
The AC50 of the first is higher: greater than 15000 nM for the first, 108 nM for the second.

Compared with `CC(O)c1cc2c(s1)c1cnn(Cc3ccccc3F)c(=O)c1n2C` (stereo unspecified), `Cn1c2cc(B(O)O)sc2c2cnn(Cc3ccccc3F)c(=O)c21` is higher in AC50: 136 nM for the first, greater than 10000 nM for the second.

`Cn1c2ccsc2c2ncn(Cc3ccccc3F)c(=O)c21` and `Cc1cc2c(s1)c1c(C)nn(Cc3ccccc3F)c(=O)c1n2C` cannot be ordered by AC50: greater than 35000 nM for the first, greater than 30000 nM for the second.

Going from `COc1cccc(Cn2ncc3c4sc([S+](C)[O-])cc4n(C)c3c2=O)c1` (stereo unspecified) to `Cn1c2cc([S+](C)[O-])sc2c2cnn(Cc3cccc(O)c3)c(=O)c21` (stereo unspecified), the AC50 rises from 73 nM to 130 nM (1.8-fold).

Compared with `COc1ccc(Cn2ncc3c4sc(C)cc4n(C)c3c2=O)cc1F`, `CCn1c2cc(C)sc2c2cnn(Cc3ccccc3F)c(=O)c21` is 26-fold higher in AC50: 225 nM for the first, 5900 nM for the second.

`CCCCCn1ncc2c3sc(C)cc3n(C)c2c1=O` and `CC(=O)Nc1cc2c(s1)c1cnn(Cc3ccccc3F)c(=O)c1n2C` cannot be ordered by AC50: greater than 35000 nM for the first, greater than 25000 nM for the second.

Molecular target: T1, Pyruvate kinase PKM
Conditions: not given
Remark: another data set of the same source

For `Cn1c2cc(S(C)(=O)=O)sc2c2cnn(Cc3ccccc3F)c(=O)c21`, the AC50 was “Not Active”.
In the case of `Cc1cc2c(s1)c1cnn(-c3ccccc3)c(=O)c1n2C`, the AC50 is reported as “Not Active”.
In the case of `Cc1cc2[nH]c3c(=O)n(Cc4ccccc4F)ncc3c2s1`, the AC50 is reported as “Not Active”.
For `Cc1cc2c(s1)c1cnn(Cc3ccccc3F)c(=O)c1n2C(C)C`, the AC50 was “Not Active”.
